ChEMBL document CHEMBL1201862, “PubChem BioAssay data set” (2004)
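Cells were grown in 96-well plates and exposed to each compound for 48 hours at five concentrations; endpoints were interpolated linearly between bracketing concentrations, or set to the highest concentration if not reached. The concentration for 50% growth inhibition is given as GI50.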 Calls of active or inactive are those of the source. No stated cut-off is given here; in the data, active = GI50 up to about 1.1 µM and inactive = higher.

Tests used:
Test in all cases: NCI tumour cell line growth inhibition, 48 h
786-0 = test system: 786-0
ACHN = test system: ACHN
EKVX = test system: EKVX
HCC 2998 = test system: HCC 2998
HL-60 = test system: HL-60
K562 = test system: K562
NCI/ADR-RES = test system: NCI/ADR-RES
OVCAR-4 = test system: OVCAR-4
OVCAR-5 = test system: OVCAR-5
RPMI-8226 = test system: RPMI-8226
RXF 393 = test system: RXF 393
SF-295 = test system: SF-295
SF-539 = test system: SF-539
SK-MEL-5 = test system: SK-MEL-5
SNB-19 = test system: SNB-19
SNB-75 = test system: SNB-75
SR = test system: SR
UACC-62 = test system: UACC-62
SK-OV-3 = test system: SK-OV-3
HOP-92 = test system: HOP-92

Measured: GI50

Nc1ccc(Cc2ccc(/N=C\c3ccc(OCc4cccc(COc5ccc(/C=N\c6ccc(Cc7ccc(N)cc7)cc6)cc5)n4)cc3)cc2)cc1
inactive: 786-0 65.9 µM | ACHN > 100 µM | EKVX 94.6 µM | HCC 2998 > 100 µM | HL-60 > 100 µM | K562 > 100 µM | NCI/ADR-RES > 100 µM | OVCAR-4 85.1 µM | OVCAR-5 > 100 µM | RPMI-8226 > 100 µM | RXF 393 23.1 µM | SF-295 50.1 µM | SF-539 4.29 µM | SK-MEL-5 > 100 µM | SNB-19 41.7 µM | SNB-75 13.2 µM | SR > 100 µM | UACC-62 > 100 µM

O=C(c1ccccc1Br)C(F)(F)F
inactive: 786-0 > 100 µM | ACHN > 100 µM | EKVX > 100 µM | HCC 2998 > 100 µM | HL-60 > 100 µM | K562 > 100 µM | NCI/ADR-RES > 100 µM | OVCAR-4 > 100 µM | OVCAR-5 > 100 µM | RPMI-8226 > 100 µM | SF-295 > 100 µM | SF-539 > 100 µM | SK-MEL-5 > 100 µM | SK-OV-3 > 100 µM | SNB-19 > 100 µM | SNB-75 > 100 µM | SR > 100 µM | UACC-62 > 100 µM

O=c1[nH]c(=O)n(C2CC(O)C(CO)O2)cc1OCC1CCCCC1 (stereo not given)
inactive: 786-0 > 100 µM | ACHN > 100 µM | EKVX > 100 µM | HL-60 > 100 µM | K562 > 100 µM | NCI/ADR-RES > 100 µM | OVCAR-4 > 100 µM | OVCAR-5 > 100 µM | RXF 393 > 100 µM | SF-295 > 100 µM | SK-MEL-5 > 100 µM | SK-OV-3 > 100 µM | SNB-19 > 100 µM | SNB-75 > 100 µM | SR > 100 µM | UACC-62 > 100 µM

CCOC(=O)Cc1nc2c(N)ncnc2n1C1OC(COC(C)=O)C(OC(C)=O)C1OC(C)=O (stereo not given)
inactive: 786-0 > 100 µM | ACHN > 100 µM | EKVX > 100 µM | HCC 2998 > 100 µM | HL-60 > 100 µM | HOP-92 83.9 µM | K562 > 100 µM | NCI/ADR-RES > 100 µM | RPMI-8226 > 100 µM | SF-295 > 100 µM | SF-539 > 100 µM | SK-MEL-5 > 100 µM | SK-OV-3 > 100 µM | SNB-19 > 100 µM | SR > 100 µM | UACC-62 > 100 µM

CC1=C2C3=C(C)C(=O)C(C)(C)CC[C@@]3(C)[C@]2(C)CCC(C)(C)C1=O
inactive: 786-0 > 100 µM | ACHN > 100 µM | EKVX > 100 µM | HL-60 > 100 µM | K562 > 100 µM | NCI/ADR-RES > 100 µM | OVCAR-4 > 100 µM | OVCAR-5 > 100 µM | RPMI-8226 > 100 µM | RXF 393 > 100 µM | SF-295 > 100 µM | SF-539 > 100 µM | SK-MEL-5 > 100 µM | SK-OV-3 > 100 µM | SNB-19 > 100 µM | SNB-75 > 100 µM | SR > 100 µM | UACC-62 > 100 µM

CCCCCC/C=C\CCCCCCCCCc1cccc(OC)c1O
inactive: 786-0 > 100 µM | ACHN > 100 µM | EKVX > 100 µM | HL-60 > 100 µM | K562 > 100 µM | NCI/ADR-RES 41.2 µM | OVCAR-5 > 100 µM | RPMI-8226 > 100 µM | RXF 393 67.6 µM | SF-295 > 100 µM | SF-539 > 100 µM | SK-MEL-5 > 100 µM | SK-OV-3 > 100 µM | SNB-19 > 100 µM | SNB-75 > 100 µM | SR > 10 µM | UACC-62 > 100 µM

COC(=O)C(Cc1c[nH]c2ccccc12)NP(=O)(O)OCC1OC(n2ccc(N)nc2=O)C(O)C1O (stereo not given)
inactive: 786-0 > 100 µM | ACHN > 100 µM | EKVX > 100 µM | HL-60 > 100 µM | HOP-92 > 100 µM | K562 > 100 µM | NCI/ADR-RES > 100 µM | OVCAR-4 > 100 µM | OVCAR-5 > 100 µM | RPMI-8226 > 100 µM | SF-295 > 100 µM | SF-539 > 100 µM | SK-MEL-5 > 100 µM | SNB-19 > 100 µM | SNB-75 > 100 µM | SR 82.2 µM | UACC-62 85.9 µM

CNC1c2ccccc2C(=O)c2cc3c(cc21)OCCOCCOCCOCCO3 (stereo not given)
inactive: 786-0 > 100 µM | ACHN > 100 µM | EKVX > 100 µM | HCC 2998 > 100 µM | HL-60 27.4 µM | K562 45.1 µM | NCI/ADR-RES > 100 µM | OVCAR-4 > 100 µM | OVCAR-5 > 100 µM | RPMI-8226 34.8 µM | SF-295 > 100 µM | SF-539 > 100 µM | SK-MEL-5 > 100 µM | SK-OV-3 > 100 µM | SNB-19 > 100 µM | SNB-75 > 100 µM | SR 28.7 µM

Cn1c(=O)sc2cc(C(=S)N3CCCCC3)ccc21
inactive: 786-0 > 100 µM | ACHN 96.2 µM | EKVX 16.1 µM | HL-60 17.7 µM | K562 47.9 µM | NCI/ADR-RES 29.6 µM | OVCAR-5 > 100 µM | RPMI-8226 61 µM | RXF 393 38.8 µM | SF-295 92.7 µM | SF-539 54.5 µM | SK-MEL-5 > 100 µM | SK-OV-3 > 100 µM | SNB-19 > 100 µM | SNB-75 19.9 µM | SR 22 µM | UACC-62 > 100 µM

O=C1c2cc(Cl)ccc2-n2cnnc2C2CSCN12 (stereo not given)
inactive: 786-0 > 100 µM | ACHN > 100 µM | EKVX > 100 µM | HCC 2998 > 100 µM | K562 > 100 µM | NCI/ADR-RES > 100 µM | OVCAR-4 > 100 µM | OVCAR-5 > 100 µM | RPMI-8226 > 100 µM | RXF 393 > 100 µM | SF-295 > 100 µM | SK-MEL-5 > 100 µM | SK-OV-3 > 100 µM | SNB-19 > 100 µM | SNB-75 > 100 µM | SR 75.2 µM | UACC-62 > 100 µM

COc1ccc(/C(C#N)=C/c2ccc(OC)c(OC)c2)cc1
inactive: 786-0 > 100 µM | ACHN > 100 µM | EKVX > 100 µM | HCC 2998 59 µM | HL-60 > 100 µM | HOP-92 > 100 µM | K562 > 100 µM | NCI/ADR-RES > 100 µM | OVCAR-4 69.8 µM | OVCAR-5 > 100 µM | RPMI-8226 > 100 µM | RXF 393 > 100 µM | SF-295 > 100 µM | SF-539 > 100 µM | SK-MEL-5 > 100 µM | SK-OV-3 > 100 µM | SNB-19 > 100 µM | SNB-75 56.9 µM | UACC-62 > 100 µM
